Measurements as given in patent US4027039A (priority 1975, dated 1977).
Where “and” joins values, the source holds several entries; their conditions need not be identical. Identical values can stand only once. Like-named read-outs stand apart in the source and are kept apart here.

How the values were obtained:
[1] = tested on: Influenza, Ann Arbor virus; assay: Influenza Ann Arbor in mice, oral; schedule by table; late read day 5 (Tables 15, 25, 29, 30), 6 (18, 20, 22, 23, 26, 27, 28, 54), 7 (14, 19, 21, 24, 53, 56), 8 (16, 17, 51), 9 (11, 55); type: in vivo, mouse
Influenza PR 8 virus [2] = assay: Influenza PR 8 in mice, oral; schedule by table; late read day 6 (Table 37), 7 (33, 36), 8 (32, 35, 47), 10 (38); control fraction 18/20 (Table 32), 19/20 (Table 35), else 100%; type: in vivo, mouse
[3] = tested on: Influenza B Massachusetts virus; assay: Influenza B Mass. in mice, oral; late read day 5 (Table 39), 7 (Table 40), 11 (Tables 61, 65); control fraction 16/20 (Table 61), else 100%; type: in vivo, mouse
Procedure: A portion of a commercially available sample of amantadine was recrystallized from isopropanol. The activity of the material against Influenza B Mass. was tested for the sample as obtained, the recrystallized portion, and the mother liquor obtained from recrystallizing the portion.

[4] = tested on: Influenza B Massachusetts virus; conditions: larger doses and different dose schedules, literature; cited from earlier work
viral infections = assay: Antiviral screening in animals, general statements; conditions: mouse, in vivo
[5] = tested on: infectious canine hepatitis; conditions: 50 mg/kg; cited from earlier work
Herpes virus [6] = assay: Herpes virus in chicken eggs, single dose 24 hours pre-infection; type: in vivo, chick embryo
Influenza PR 8 virus [7] = assay: Influenza PR 8 in mice, subcutaneous; late read day 6 (Table 37), 8 (Table 47); type: in vivo, mouse
Influenza PR 8 virus [8] = assay: Influenza PR 8 in mice, intraperitoneal (Table 47); type: in vivo, mouse
Mengo virus = Mengo virus in mice, oral; type: in vivo, mouse
Source text: The results are illustrated in Table 43.

Vaccinia IHD virus = type: in vivo, mouse
Vaccinia virus [9] = type: in vivo, rabbit
Vaccinia virus [10] = tested on: Vaccinia virus; design: species or system fertile eggs; conditions: various concentrations
Herpes virus [11] = tested on: Herpes virus
Neurovaccinia virus = assay: Neurovaccinia in mice; conditions: single dose level, three instances

NC12CC3CC(CC(C3)C1)C2 [Commercial amantadine, amantadine, reference compound]
occasions with survivors ([1]; of 18 tests): 5 | instances of increased geometric mean survival time (Influenza PR 8 virus [2]; of 41 tests): 11 | statistically significant number of survivors in one single instance (Influenza PR 8 virus [2]; of 41 tests): 3 | No. animals surviving after 11 days ([3]; total dose 60 ng): 3 | No. animals surviving after 11 days ([3]; total dose 600 ng): 3 | Survivors ([3]; total dose 600 ng): 3 | No. animals surviving after 11 days ([3]; total dose 6 μg): 7 | Survivors ([3]; total dose 6 μg): 5 | No. animals surviving after 11 days ([3]; total dose 60 μg): 3 | Survivors ([3]; total dose 60 μg): 2 | No. animals surviving after 11 days ([3]; total dose 600 μg): 5 | Survivors ([3]; total dose 600 μg): 5 | No. animals surviving after 11 days ([3]; total dose 6 mg): 4 | Survivors ([3]; total dose 6 mg): 2 | effect against Influenza B Massachusetts [4]: ineffective | activity in words (viral infections): inactive against all of the other viruses in the test system

O=C(CCNNC(=O)c1ccncc1)NCc1ccccc1 [Nialamide, nialamide, reference compound]
Survivors ([1]; total dose 400 pg): 1 | Survivors ([1]; total dose 4 ng): 1 | Survivors ([1]; total dose 40 ng): 0 | Survivors ([1]; total dose 400 ng): 0 | Survivors ([1]; total dose 4 μg): 0 | Survivors ([1]; total dose 400 μg): 2 | Survivors ([1]; total dose 4 mg): 1 | treated animals survived [5]: 15 of 16

NNC(N)=S [Thiosemicarbazide, thiosemicarbazide]
Deaths on day 1 (Herpes virus [6]; 2 μg): 3 | Deaths on day 3 (Herpes virus [6]; 2 μg): 5 | Deaths on day 4 (Herpes virus [6]; 2 μg): 3 | No. dying 5-22 day (Herpes virus [6]; 2 μg): 0 | No. living longer than controls (Herpes virus [6]; 2 μg): 0 | Total deaths, 4th day (Herpes virus [6]; 2 μg): 12 | Deaths on day 2 (Herpes virus [6]; 20 μg): 4 | Deaths on day 3 (Herpes virus [6]; 20 μg): 6 | No. dying 5-22 day (Herpes virus [6]; 20 μg): 0 | No. living longer than controls (Herpes virus [6]; 20 μg): 0 | Total deaths, 4th day (Herpes virus [6]; 20 μg): 12 | Deaths on day 1 (Herpes virus [6]; .00005 μg): 2 | Deaths on day 2 (Herpes virus [6]; .00005 μg): 5 | Deaths on day 3 (Herpes virus [6]; .00005 μg): 2 | No. dying 5-22 day (Herpes virus [6]; .00005 μg): 0 | Total deaths, 4th day (Herpes virus [6]; .00005 μg): 10 | Deaths on day 1 (Herpes virus [6]; .0005 μg): 2 | Deaths on day 2 (Herpes virus [6]; .0005 μg): 3 | Deaths on day 3 (Herpes virus [6]; .0005 μg): 2 | Deaths on day 4 (Herpes virus [6]; .0005 μg): 3 | No. dying 5-22 day (Herpes virus [6]; .0005 μg): 0 | Total deaths, 4th day (Herpes virus [6]; .0005 μg): 10 | Deaths on day 1 (Herpes virus [6]; .005 μg): 4 | Deaths on day 2 (Herpes virus [6]; .005 μg): 3 | Deaths on day 3 (Herpes virus [6]; .005 μg): 3 | No. living longer than controls (Herpes virus [6]; .005 μg): 2 | Total deaths, 4th day (Herpes virus [6]; .005 μg): 10 | Deaths on day 2 (Herpes virus [6]; .05 μg): 3 | Deaths on day 3 (Herpes virus [6]; .05 μg): 5 | No. dying 5-22 day (Herpes virus [6]; .05 μg): 0 | Total deaths, 4th day (Herpes virus [6]; .05 μg): 9 | Deaths on day 1 (Herpes virus [6]; .5 μg): 3 | Deaths on day 2 (Herpes virus [6]; .5 μg): 4 | Deaths on day 3 (Herpes virus [6]; .5 μg): 2 | Deaths on day 4 (Herpes virus [6]; .5 μg): 2 | No. dying 5-22 day (Herpes virus [6]; .5 μg): 0 | Total deaths, 4th day (Herpes virus [6]; .5 μg): 11 | Total no. living longer than controls (Herpes virus [6]; all doses): 7 | No. animals surviving after 5-9 days ([1]; total dose .05 μg): 5 | No. animals surviving after 5-9 days ([1]; total dose .5 μg): 3 | Survivors ([1]; total dose .5 μg): 0 | No. animals surviving after 5-9 days ([1]; total dose .5 μg, listed as thiosemicarbazide): 7 and 6 | No. animals surviving after 6-10 days (Influenza PR 8 virus [2]; total dose 5 μg): 3 | No. animals surviving after 6-10 days (Influenza PR 8 virus [2]; total dose .005 μg): 3 | No. animals surviving when 100% (or given fraction) of controls are dead (Influenza PR 8 virus [2]; total dose .005 μg): 3 | Survivors (Influenza PR 8 virus [2]; total dose .005 μg): 3 | No. animals surviving when 100% (or given fraction) of controls are dead (Influenza PR 8 virus [2]; total dose .5 μg): 0 | Survivors (Influenza PR 8 virus [2]; total dose .5 μg): 0 | No. animals surviving after 6-8 days (Influenza PR 8 virus [7]; total dose 5 μg): 3 | Survivors (Influenza PR 8 virus [7]; total dose 5 μg): 3 | Survivors (Influenza PR 8 virus [7]; total dose .0005 μg): 0 | Survivors (Influenza PR 8 virus [7]; total dose .005 μg): 0 | Survivors (Influenza PR 8 virus [8]; total dose 5 μg): 0 | Survivors (Influenza PR 8 virus [8]; total dose .005 μg): 0 | Survivors (Influenza PR 8 virus [8]; total dose .05 μg): 0 | Survivors (Influenza PR 8 virus [8]; total dose .5 μg): 0 | Survivors (Mengo virus; total dose .0000005 μg): 0 | No. animals surviving after 6 days (Mengo virus; total dose .000005 μg): 2 | No. animals surviving after 6 days (Mengo virus; total dose .00005 μg): 5 | Survivors (Mengo virus; total dose .0005 μg): 0 | Survivors (Mengo virus; total dose .005 μg): 0 | Statistical Significance of Tail Lesions (Vaccinia IHD virus; 10 ng, day 12): < .05 | Statistical Significance of Tail Lesions (Vaccinia IHD virus; 10 ng, day 14): < .05 | Statistical Significance of Tail Lesions (Vaccinia IHD virus; 10 ng, day 17): < .05 | Statistical Significance of Tail Lesions (Vaccinia IHD virus; 10 ng, day 21): < .05 | Statistical Significance of Tail Lesions (Vaccinia IHD virus; 1 μg, day 5): < .01 | Statistical Significance of Tail Lesions (Vaccinia IHD virus; 1 μg, day 6): < .01 | Statistical Significance of Tail Lesions (Vaccinia IHD virus; 1 μg, day 7): < .01 | Statistical Significance of Tail Lesions (Vaccinia IHD virus; 1 μg, day 8): < .01 | Statistical Significance of Tail Lesions (Vaccinia IHD virus; 1 μg, day 10): < .01 | Statistical Significance of Tail Lesions (Vaccinia IHD virus; 1 μg, day 11): < .01 | Statistical Significance of Tail Lesions (Vaccinia IHD virus; 1 μg, day 12): < .01 | Statistical Significance of Tail Lesions (Vaccinia IHD virus; 1 μg, day 14): < .01 | Statistical Significance of Tail Lesions (Vaccinia IHD virus; 1 μg, day 17): < .01 | Statistical Significance of Tail Lesions (Vaccinia IHD virus; 1 μg, day 21): < .01 | Statistical Significance of Tail Lesions (Vaccinia IHD virus; 10 [μg], day 6): < .01 | Statistical Significance of Tail Lesions (Vaccinia IHD virus; 10 [μg], day 10): < .05 | Statistical Significance of Tail Lesions (Vaccinia IHD virus; 10 [μg], day 11): < .01 | Statistical Significance of Tail Lesions (Vaccinia IHD virus; 10 [μg], day 12): < .01 | Statistical Significance of Tail Lesions (Vaccinia IHD virus; 10 [μg], day 14): < .01 | Statistical Significance of Tail Lesions (Vaccinia IHD virus; 10 [μg], day 17): < .01 | Statistical Significance of Tail Lesions (Vaccinia IHD virus; 10 [μg], day 21): < .01 | Statistical Significance of Tail Lesions (Vaccinia IHD virus; 100 [ng], day 8): < .05 | Statistical Significance of Tail Lesions (Vaccinia IHD virus; 100 [ng], day 10): < .01 | Statistical Significance of Tail Lesions (Vaccinia IHD virus; 100 [ng], day 11): < .01 | Statistical Significance of Tail Lesions (Vaccinia IHD virus; 100 [ng], day 12): < .01 | Statistical Significance of Tail Lesions (Vaccinia IHD virus; 100 [ng], day 14): < .01 | Statistical Significance of Tail Lesions (Vaccinia IHD virus; 100 [ng], day 17): < .01 | Statistical Significance of Tail Lesions (Vaccinia IHD virus; 100 [ng], day 21): < .01 | approximate percentage confluency of the pox (Vaccinia virus [9]; 0.0000025 μg/kg, Test 2): 85% | approximate percentage confluency of the pox (Vaccinia virus [9]; 0.000025 μg/kg, Test 2): 25% | approximate percentage confluency of the pox (Vaccinia virus [9]; 0.00025 μg/kg, Test 2): 40% | approximate percentage confluency of the pox (Vaccinia virus [9]; 0.0025 μg/kg, Duplicate Experiments): 75% and 60% | approximate percentage confluency of the pox (Vaccinia virus [9]; 0.0025 μg/kg, Test 1): 2% | approximate percentage confluency of the pox (Vaccinia virus [9]; 0.0025 μg/kg, Test 2): 80% | approximate percentage confluency of the pox (Vaccinia virus [9]; 0.0025 μg/kg, Test 3): 85% | approximate percentage confluency of the pox (Vaccinia virus [9]; 0.025 μg/kg, Duplicate Experiments): 75% and 80% | approximate percentage confluency of the pox (Vaccinia virus [9]; 0.025 μg/kg, Test 1): 5% | approximate percentage confluency of the pox (Vaccinia virus [9]; 0.025 μg/kg, Test 2): 5% | approximate percentage confluency of the pox (Vaccinia virus [9]; 0.025 μg/kg, Test 3): 75% and 90% | approximate percentage confluency of the pox (Vaccinia virus [9]; 0.25 μg/kg, Test 1): 10% | approximate percentage confluency of the pox (Vaccinia virus [9]; 0.25 μg/kg, Test 2): 10% | approximate percentage confluency of the pox (Vaccinia virus [9]; 0.25 μg/kg, Test 3): 30% and 40% | approximate percentage confluency of the pox (Vaccinia virus [9]; 2.5 μg/kg, Duplicate Experiments): 30% and 20% | approximate percentage confluency of the pox (Vaccinia virus [9]; 2.5 μg/kg, Test 1): 50% | approximate percentage confluency of the pox (Vaccinia virus [9]; 2.5 μg/kg, Test 2): 80% | approximate percentage confluency of the pox (Vaccinia virus [9]; 2.5 μg/kg, Test 3): 30% and 20% | approximate percentage confluency of the pox (Vaccinia virus [9]; 25 μg/kg, Test 1): 80% | approximate percentage confluency of the pox (Vaccinia virus [9]; 25 μg/kg, Test 2): 10% | approximate percentage confluency of the pox (Vaccinia virus [9]; 250 μg/kg, Test 1): 80% | significance (T test) (Vaccinia virus [9]; dose 0.25 μg/kg): < .01 | significance (T test) (Vaccinia virus [9]; dose 2.5 μg/kg): < .01 | effect on pox formation (Vaccinia virus [9]; rabbit, in vivo): highly significant and reproducible protective effects | effect on pox formation on the membrane (Vaccinia virus [10]): No effect | activity in words (Herpes virus [11]; mouse, in vivo): quite significant protection | No. animals surviving when 100% (or given fraction) of controls are dead (Herpes virus [11]; total dose .000005 μg): 0 | Survivors (Herpes virus [11]; total dose .000005 μg): 0 | No. animals surviving after 6-9 days (Herpes virus [11]; total dose .00005 μg): 6 | No. animals surviving when 100% (or given fraction) of controls are dead (Herpes virus [11]; total dose .00005 μg): 3 | Survivors (Herpes virus [11]; total dose .00005 μg): 3 | No. animals surviving after 6-9 days (Herpes virus [11]; total dose .005 μg): 5 and 3 and 6 | No. animals surviving after 6-9 days (Herpes virus [11]; total dose .5 μg): 3 | surviving animals (Neurovaccinia virus): one | activity in words (viral infections): active
